Key:
[1] = test system: actinic keratosis lesions; assay: Preliminary study: 5% ibuprofen gel vs 3% diclofenac gel in patients with actinic keratosis; conditions: for Development of new lesions during treatment: 90 days of treatment; for Average number of lesions at the start of the study: baseline; for Average number of lesions (total): all areas; for Severity of the lesions (BSI score): during the 90 days of treatment; for Investigator global improvement index (IGII): scale -2 to +4
Method: The study was performed according to the relevant criteria and was approved by the ethics commission of the dermatological society of Slovakia.
(§1) The application frequency was twice a day. The success of the treatment was evaluated after 30, 60 and 90 days.
(§2) When included in the study, the severity of the lesions was evaluated according to the so-called BSI (baseline severity index) score from 0 to 3. Patients having a BSI score of 1 and 2 were exclusively included in the study.
BSI score (baseline severity index score 1-3) • 0=no actinic keratosis (AK) visible • 1=clearly visible lesion • 2=many small, moderately thick lesions or a few large scaly lesions visible • 3=many thick hypertrophic lesions that are clearly visible and palpable with clear bounds.
(§3) The main target parameters within the scope of effectiveness were the total number of lesions in the treatment area and the IGII (investigator global improvement index) score from −2 to +4. From round 1, the evaluations were always done in comparison with the preliminary round.
(§4) IGII (investigator global improvement index) • −2 significant worsening • −1 slight worsening • 0 unchanged • 1 slight improvement • 2 improvement • 3 significant improvement • 4 complete healing
The IGII was measured between each two rounds.

[2] = test system: actinic keratosis lesions; assay: Second study: 10% ibuprofen gel vs 3% diclofenac gel in patients with actinic keratosis; conditions: for Average number of lesions at the start of the study: baseline; for Average IGII at the end of the treatment time: all areas; for Average IGII at the end of the treatment time / Investigator global improvement index (IGII): scale -2 to +4
Method: as §1, §2, §3, §4
The design of the study was the same as that of the first study.

[3] = cited from earlier work
[4] = 5% ibuprofen gel or 3% diclofenac gel
[5] = Face, 90 days, 5% ibuprofen gel or 3% diclofenac gel twice a day
[6] = Face, 5% ibuprofen gel or 3% diclofenac gel
[7] = Forehead, 90 days, 5% ibuprofen gel or 3% diclofenac gel twice a day
[8] = Forehead, 5% ibuprofen gel or 3% diclofenac gel twice a day, 12 patients per group
[9] = Hands, 90 days, 5% ibuprofen gel or 3% diclofenac gel twice a day
[10] = Hands, 5% ibuprofen gel or 3% diclofenac gel
[11] = Scalp, 90 days, 5% ibuprofen gel or 3% diclofenac gel twice a day
[12] = Scalp, 5% ibuprofen gel or 3% diclofenac gel
[13] = after 90 days of treatment, 5% ibuprofen gel or 3% diclofenac gel twice a day
[14] = start of study, 5% ibuprofen gel or 3% diclofenac gel
[15] = Face, 90 days, 10% ibuprofen gel or 3% diclofenac gel
[16] = Face, 10% ibuprofen gel or 3% diclofenac gel
[17] = Forehead, 90 days, 10% ibuprofen gel or 3% diclofenac gel
[18] = Forehead, 10% ibuprofen gel or 3% diclofenac gel, 6 patients per group
[19] = Hands, 90 days, 10% ibuprofen gel or 3% diclofenac gel
[20] = Hands, 10% ibuprofen gel or 3% diclofenac gel
[21] = 90 days, 10% ibuprofen gel or 3% diclofenac gel
[22] = beginning of the treatment, 10% ibuprofen gel or 3% diclofenac gel
[23] = end of the 90 days of treatment, 10% ibuprofen gel or 3% diclofenac gel
[24] = Forehead, V0 (start of the study)

O=C(O)Cc1ccccc1Nc1c(Cl)cccc1Cl [Diclofenac, diclofenac]
Development of new lesions during treatment [1, 4]: None of the patients developed new lesions
Average number of lesions after 90 days of treatment [1, 5]: 5.5
Average number of lesions at the start of the study [1, 6]: 7
Average number of lesions after 90 days of treatment [1, 7]: 5.3
Average number of lesions at the start of the study [1, 8]: 7.1
Average number of lesions after 90 days of treatment [1, 9]: 17.1
Average number of lesions at the start of the study [1, 10]: 18.1
Average number of lesions after 90 days of treatment [1, 11]: 11.5
Average number of lesions at the start of the study [1, 12]: 15.8
Average number of lesions (total) [1, 13]: 39.4
Average number of lesions (total) [1, 14]: 48
Severity of the lesions (BSI score) [1, 4]: remained virtually unchanged
Undesirable side effects ([1]; during the study, topical 5% ibuprofen gel or 3% diclofenac gel twice a day, 90 days): No undesirable side effects
Tolerability of the therapy ([1]; topical 5% ibuprofen gel or 3% diclofenac gel twice a day, 90 days): well tolerated
Tolerability ([2]; 10% ibuprofen gel or 3% diclofenac gel, 90 days topical): very good
Average number of lesions after 90 days of treatment [2, 15]: 6.2
Average number of lesions at the start of the study [2, 16]: 12.3
Average number of lesions after 90 days of treatment [2, 17]: 4.2
Average number of lesions at the start of the study [2, 18]: 7.5
Average number of lesions after 90 days of treatment [2, 19]: 8.8
Average number of lesions at the start of the study [2, 20]: 17
Average IGII at the end of the treatment time [2, 21]: 2.29
Total number of lesions [2, 22]: 36.8
Total number of lesions [2, 23]: 19.2

CC(C)Cc1ccc(C(C)C(=O)O)cc1 (stereo not drawn) [Ibuprofen, ibuprofen]
Development of new lesions during treatment [1, 4]: None of the patients developed new lesions
Average number of lesions after 90 days of treatment [1, 5]: 4.8
Investigator global improvement index (IGII) ([1]; Face, V0 (start of the study)): 0
Investigator global improvement index (IGII) ([1]; Face, V3 (after 90 days of treatment), 5% ibuprofen gel or 3% diclofenac gel): 1.38
Average number of lesions at the start of the study [1, 6]: 5.7
Average number of lesions after 90 days of treatment [1, 7]: 4
Investigator global improvement index (IGII) [1, 24]: 0
Investigator global improvement index (IGII) ([1]; Forehead, V3 (after 90 days of treatment), 5% ibuprofen gel or 3% diclofenac gel): 1.33
Average number of lesions at the start of the study [1, 8]: 4.6
Investigator global improvement index (IGII) ([1]; Hand, V0 (start of the study)): 0
Investigator global improvement index (IGII) ([1]; Hand, V3 (after 90 days of treatment), 5% ibuprofen gel or 3% diclofenac gel): 1
Average number of lesions after 90 days of treatment [1, 9]: 16.9
Average number of lesions at the start of the study [1, 10]: 18.5
Average number of lesions after 90 days of treatment [1, 11]: 6
Investigator global improvement index (IGII) ([1]; Scalp, V0 (start of the study)): 0
Investigator global improvement index (IGII) ([1]; Scalp, V3 (after 90 days of treatment), 5% ibuprofen gel or 3% diclofenac gel): 1
Average number of lesions at the start of the study [1, 12]: 6.3
Average number of lesions (total) [1, 13]: 31.7
Average number of lesions (total) [1, 14]: 35.1
Severity of the lesions (BSI score) [1, 4]: remained virtually unchanged
Tolerability of the therapy ([1]; human, in vivo): well tolerated
Undesirable side effects ([1]; human, in vivo): No undesirable side effects
Plasma level necessary for a general systemic effect ([3]; systemic effect): ≥ 10000 ng/mL
Plasma level reached in topical application ([3]; topical application): about 2 μg/ml
Therapeutic result in treating slight and moderate keratosis lesions (in words) ([2]; 10% ibuprofen gel or 3% diclofenac gel, 90 days): pronounced effectiveness
Average number of lesions after 90 days of treatment [2, 15]: 0.7
Investigator global improvement index (IGII) ([2]; Face, V0 (start of the study)): 0
Investigator global improvement index (IGII) ([2]; Face, V3 (after 90 days of treatment), 10% ibuprofen gel or 3% diclofenac gel): 3.7
Average number of lesions at the start of the study [2, 16]: 5.2
Average number of lesions after 90 days of treatment [2, 17]: 0.3
Investigator global improvement index (IGII) [2, 24]: 0
Investigator global improvement index (IGII) ([2]; Forehead, V3 (after 90 days of treatment), 10% ibuprofen gel or 3% diclofenac gel): 3.8
Average number of lesions at the start of the study [2, 18]: 3.3
Investigator global improvement index (IGII) ([2]; Hand, V0 (start of the study)): 0
Investigator global improvement index (IGII) ([2]; Hand, V3 (after 90 days of treatment), 10% ibuprofen gel or 3% diclofenac gel): 3.6
Average number of lesions after 90 days of treatment [2, 19]: 2.7
Average number of lesions at the start of the study [2, 20]: 9.5
Average IGII at the end of the treatment time [2, 21]: 3.7
Total number of lesions [2, 22]: 18
Total number of lesions [2, 23]: 3.7
Patients completely freed from the optically visible lesions ([2]; end of the 90 days of treatment, 10% ibuprofen gel, six patients in group): three
Tolerability ([2]; human, in vivo): very good

— patent US20130197089A1, “COMPOSITIONS FOR THE TREATMENT OF ACTINIC KERATOSIS” (DOLORGIET GMBH & CO. KG, priority 2012, published 2013)
